molecular target: T1, human TRPA1 (Homo sapiens, UniProt O75762); assay: TRPA1 FLIPR Tetra calcium influx assay in CHO cells (block of cinnamaldehyde-induced calcium influx); type: cell-based; conditions: Table 1; CHO cells expressing TRPA1; agonist cinnamaldehyde 75 uM; with vs without substituent at R2/R3; read-out: hTRPA1 CHO Ca2+ AUC EVO (IC50)
T1 construct: expressed in transfected cells; host or cells: CHO cells
Summary of the method: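 CHO cells expressing TRPA1 were loaded with calcium dye in HBSS/20 mM HEPES, pH 7.4, 0.02% BSA, then given compound for 20 min at room temperature before ~EC80 cinnamaldehyde (75 µM human, 45 µM rat). Block of calcium influx was read on FLIPR Tetra; IC50 fitted with Hill coefficient fixed at 1.5.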

T1 sequence (O75762 whole entry): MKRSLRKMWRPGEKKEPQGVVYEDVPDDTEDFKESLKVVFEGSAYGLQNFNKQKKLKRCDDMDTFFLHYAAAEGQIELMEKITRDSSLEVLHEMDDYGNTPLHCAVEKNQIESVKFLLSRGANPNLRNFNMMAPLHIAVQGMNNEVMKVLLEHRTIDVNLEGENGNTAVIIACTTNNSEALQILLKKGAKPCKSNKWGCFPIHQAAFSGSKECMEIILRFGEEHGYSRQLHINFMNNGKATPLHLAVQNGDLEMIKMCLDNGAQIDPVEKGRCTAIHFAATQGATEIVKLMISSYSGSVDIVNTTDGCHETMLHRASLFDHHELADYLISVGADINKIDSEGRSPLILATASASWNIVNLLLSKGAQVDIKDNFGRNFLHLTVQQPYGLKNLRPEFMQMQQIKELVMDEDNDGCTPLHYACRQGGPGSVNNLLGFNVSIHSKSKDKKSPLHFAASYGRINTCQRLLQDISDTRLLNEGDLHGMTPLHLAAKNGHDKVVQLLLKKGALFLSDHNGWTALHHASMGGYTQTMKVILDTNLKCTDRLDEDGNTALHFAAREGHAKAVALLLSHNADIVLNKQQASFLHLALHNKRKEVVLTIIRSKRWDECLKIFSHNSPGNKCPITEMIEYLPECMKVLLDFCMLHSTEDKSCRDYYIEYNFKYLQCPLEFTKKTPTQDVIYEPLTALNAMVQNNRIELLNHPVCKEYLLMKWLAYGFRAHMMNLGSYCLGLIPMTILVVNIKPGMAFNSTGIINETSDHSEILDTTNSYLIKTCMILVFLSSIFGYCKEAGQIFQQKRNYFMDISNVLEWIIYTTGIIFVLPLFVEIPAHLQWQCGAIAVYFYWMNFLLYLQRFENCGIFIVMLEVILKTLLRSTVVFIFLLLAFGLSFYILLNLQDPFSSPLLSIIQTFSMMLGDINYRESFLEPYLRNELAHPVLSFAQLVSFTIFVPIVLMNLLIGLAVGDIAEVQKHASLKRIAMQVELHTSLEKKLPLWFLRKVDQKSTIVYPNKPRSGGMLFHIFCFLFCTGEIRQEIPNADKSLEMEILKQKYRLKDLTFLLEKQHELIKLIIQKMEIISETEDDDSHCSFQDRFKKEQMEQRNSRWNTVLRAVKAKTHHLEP

Compared with `C[C@H]1[C@H](F)C[C@@H](C(=O)NCc2cc(-c3cnc(C(F)(F)F)nc3)ncc2F)N1S(=O)(=O)c1ccc(F)cc1` [drawing 600, (2S,4R,5S)-4-fluoro-1-(4-fluorophenyl)sulfonyl-N-[[5-fluoro-2-[2-(trifluoromethyl)pyrimidin-5-yl]-4-pyridyl]methyl]-5-methyl-pyrrolidine-2-carboxamide], `C[C@H]1[C@H](F)C[C@@H](C(=O)NCc2cc(-c3cnc(C(F)(F)F)nc3)ncn2)N1S(=O)(=O)c1ccc(F)cc1` [drawing 602, (2S,4R,5S)-4-fluoro-1-(4-fluorophenyl)sulfonyl-5-methyl-N-[[6-[2-(trifluoromethyl)pyrimidin-5-yl]pyrimidin-4-yl]methyl]pyrrolidine-2-carboxamide] is 11-fold higher in IC50: 2.01 nM for the first, 21.9 nM for the second.

`O=C(NCc1ccnc(-c2cnc(C(F)(F)F)nc2)c1)[C@@H]1C[C@@H](F)CN1S(=O)(=O)c1ccc(F)cc1` [(2S,4R)-4-fluoro-1-(4-fluorophenyl)sulfonyl-N-[[2-[2-(trifluoromethyl)pyrimidin-5-yl]-4-pyridyl]methyl]pyrrolidine-2-carboxamide, reference compound] showed an IC50 of 129 nM.

same assay, conditions: Table 2; CHO cells expressing TRPA1; agonist cinnamaldehyde 75 uM; 20 min compound incubation; Hill coefficient fixed to 1.5; read-out: hTRPA1 CHO Ca2+ AUC EVO (IC50)

First: C[C@H]1[C@H](F)C[C@@H](C(=O)NCc2cc(-c3ccc(C(F)(F)F)nc3)ncc2C(F)(F)F)N1S(=O)(=O)c1ccc(F)cc1 [Example 115, (2S,4R,5S)-4-fluoro-1-(4-fluorophenyl)sulfonyl-5-methyl-N-[[5-(trifluoromethyl)-2-[6-(trifluoromethyl)-3-pyridyl]-4-pyridyl]methyl]pyrrolidine-2-carboxamide]
Second: C[C@H]1[C@H](F)C[C@@H](C(=O)NCc2cc(-c3cnc(C(F)(F)F)nc3)ncc2OC(F)(F)F)N1S(=O)(=O)c1ccc(F)cc1 [Example 105, (2S,4R,5S)-4-fluoro-1-(4-fluorophenyl)sulfonyl-5-methyl-N-[[5-(trifluoromethoxy)-2-[2-(trifluoromethyl)pyrimidin-5-yl]-4-pyridyl]methyl]pyrrolidine-2-carboxamide]
The IC50 of the first is 1.5-fold higher: 1.34 nM for the first, 0.875 nM for the second. The second is the more potent here.

First: O=C(NCc1cc(N2CCC(OC(F)(F)F)CC2)ncc1F)[C@@H]1C[C@@H](F)CN1S(=O)(=O)c1ccc(F)cc1 [Example 57, (2S,4R)-4-fluoro-1-(4-fluorophenyl)sulfonyl-N-[[5-fluoro-2-[4-(trifluoromethoxy)-1-piperidyl]-4-pyridyl]methyl]pyrrolidine-2-carboxamide]
Second: O=C(NCc1cc(-c2ccc(S(F)(F)(F)(F)F)cc2)ncc1F)[C@@H]1C[C@@H](F)CN1S(=O)(=O)c1ccc(F)cc1 [Example 59, (2S,4R)-4-fluoro-N-[[5-fluoro-2-[4-(pentafluoro-sulfanyl)phenyl]-4-pyridyl]methyl]-1-(4-fluorophenyl)sulfonyl-pyrrolidine-2-carboxamide]
The IC50 of the first is 3.3-fold lower: 49.4 nM for the first, 161 nM for the second. The first is the more potent here.

`O=C(NCc1cc(-c2cnc(C(F)(F)F)nc2)ncc1Cl)[C@@H]1[C@H]2C[C@H]2CN1S(=O)(=O)c1ccc(F)cc1` [Example 63, (1S,2S,5R)-N-[[5-chloro-2-[2-(trifluoromethyl)pyrimidin-5-yl]-4-pyridyl]methyl]-3-(4-fluorophenyl)sulfonyl-3-azabicyclo[3.1.0]hexane-2-carboxamide] and `C[C@@]1(F)C[C@@H](C(=O)NCc2cc(-c3cnc(C(F)(F)F)nc3)ncc2C(F)(F)F)N(S(=O)(=O)c2ccc(F)cc2)C1` [Example 155, (2S,4R)-4-fluoro-1-(4-fluorophenyl)sulfonyl-4-methyl-N-[[5-(trifluoromethyl)-2-[2-(trifluoromethyl)pyrimidin-5-yl]-4-pyridyl]methyl]pyrrolidine-2-carboxamide] are within 1.5-fold of each other in IC50: 6.16 nM for the first, 4.24 nM for the second.

`C[C@H]1[C@H](F)C[C@@H](C(=O)NCc2cc(-c3cnc(C(F)(F)F)nc3)c(F)c(C3CC3)n2)N1S(=O)(=O)c1ccc(F)cc1` [Example 131, (2S,4R,5S)-N-[[6-cyclopropyl-5-fluoro-4-[2-(trifluoromethyl)pyrimidin-5-yl]-2-pyridyl]methyl]-4-fluoro-1-(4-fluorophenyl)sulfonyl-5-methyl-pyrrolidine-2-carboxamide] and `C[C@H]1[C@H](F)C[C@@H](C(=O)NCc2cc(-c3cnc(C(F)(F)F)nc3)cc(C3CC3)n2)N1S(=O)(=O)c1ccc(F)cc1` [Example 130, (2S,4R,5S)-N-[[6-cyclopropyl-4-[2-(trifluoromethyl)pyrimidin-5-yl]-2-pyridyl]methyl]-4-fluoro-1-(4-fluorophenyl)sulfonyl-5-methyl-pyrrolidine-2-carboxamide] are within 1.5-fold of each other in IC50: 4.04 nM for the first, 3.82 nM for the second.

Going from `C[C@H]1[C@H](F)C[C@@H](C(=O)NCc2cc(OCc3cncc(C(F)(F)F)c3)c(F)cn2)N1S(=O)(=O)c1ccc(F)cc1` [Example 48, (2S,4R,5S)-4-fluoro-N-((5-fluoro-4-((5-(trifluoromethyl)pyridin-3-yl)methoxy)pyridin-2-yl)methyl)-1-(4-fluorophenylsulfonyl)-5-methylpyrrolidine-2-carboxamide] to `C[C@H]1[C@H](F)C[C@@H](C(=O)NCc2cc(-c3cnc(C(F)(F)F)nc3)c(Cl)cn2)N1S(=O)(=O)c1ccc(F)cc1` [Example 32, (2S,4R,5S)-N-((5-chloro-4-(2-(trifluoromethyl)pyrimidin-5-yl)pyridin-2-yl)methyl)-4-fluoro-1-(4-fluorophenylsulfonyl)-5-methylpyrrolidine-2-carboxamide], the IC50 falls from 105 nM to 10.4 nM (10-fold).

Compared with `C[C@H]1[C@H](F)C[C@@H](C(=O)NCc2cc(C(F)(F)F)nc(C3CC3)n2)N1S(=O)(=O)c1cc2cc(F)ccc2o1` [Example 120, (2S,4R,5S)-N-[[2-cyclopropyl-6-(trifluoromethyl)pyrimidin-4-yl]methyl]-4-fluoro-1-(5-fluorobenzofuran-2-yl)sulfonyl-5-methyl-pyrrolidine-2-carboxamide], `C[C@H]1[C@H](F)C[C@@H](C(=O)NCc2cc(C(F)(F)F)nc(C3CC3)c2F)N1S(=O)(=O)c1ccc(F)cc1` [Example 123, (2S,4R,5S)-N-[[2-cyclopropyl-3-fluoro-6-(trifluoromethyl)-4-pyridyl]methyl]-4-fluoro-1-(4-fluorophenyl)sulfonyl-5-methyl-pyrrolidine-2-carboxamide] is 7.1-fold higher in IC50: 1.52 nM for the first, 10.8 nM for the second.

Compared with `N#Cc1cc(F)c(-c2cnc(C(F)(F)F)nc2)cc1CNC(=O)[C@@H]1C[C@@H](F)CN1S(=O)(=O)c1ccc(F)cc1` [Example 64, (2S,4R)-N-[[2-cyano-4-fluoro-5-[2-(trifluoromethyl)pyrimidin-5-yl]phenyl]methyl]-4-fluoro-1-(4-fluorophenyl)sulfonyl-pyrrolidine-2-carboxamide], `C[C@H]1[C@H](F)C[C@@H](C(=O)NCc2cc(-c3cnc(C(F)(F)F)nc3)ncc2CC(F)(F)F)N1S(=O)(=O)c1ccc(F)cc1` [Example 136, (2S,4R,5S)-4-fluoro-1-(4-fluorophenyl)sulfonyl-5-methyl-N-[[5-(2,2,2-trifluoroethyl)-2-[2-(trifluoromethyl)pyrimidin-5-yl]-4-pyridyl]methyl]pyrrolidine-2-carboxamide] is 5.5-fold lower in IC50: 44.5 nM for the first, 8.11 nM for the second. The second is the more potent here.

Compared with `C[C@H]1[C@H](F)C[C@@H](C(=O)NCc2cn(-c3cnc(C(F)(F)F)nc3)nc2C(F)F)N1S(=O)(=O)c1ccc(F)cc1` [Example 40, (2S,4R,5S)-N-[[3-(difluoromethyl)-1-[2-(trifluoromethyl)pyrimidin-5-yl]-1H-pyrazol-4-yl]methyl]-4-fluoro-1-[(4-fluorobenzene)sulfonyl]-5-methylpyrrolidine-2-carboxamide], `C[C@H]1[C@H](F)C[C@@H](C(=O)NCc2cc(-c3cnc(C(F)(F)F)nc3)cnc2C(F)F)N1S(=O)(=O)c1ccc(F)cc1` [Example 162, (2S,4R,5S)-N-[[2-(difluoromethyl)-5-[2-(trifluoromethyl)pyrimidin-5-yl]-3-pyridyl]methyl]-4-fluoro-1-(4-fluorophenyl)sulfonyl-5-methyl-pyrrolidine-2-carboxamide] is 18-fold lower in IC50: 43.1 nM for the first, 2.34 nM for the second. The second is the more potent here.

Compared with `C[C@H]1[C@H](F)C[C@@H](C(=O)NCc2cc(-c3cnc(C(F)(F)F)s3)ncc2C#N)N1S(=O)(=O)c1ccc(F)cc1` [Example 129, (2S,4R,5S)—N-((5-cyano-2-(2-(trifluoromethyl)thiazol-5-yl)pyridin-4-yl)methyl)-4-fluoro-1-((4-fluorophenyl)sulfonyl)-5-methylpyrrolidine-2-carboxamide], `C[C@H]1[C@H](F)C[C@@H](C(=O)NCc2cc(-c3cnc(C(F)(F)F)cn3)ncn2)N1S(=O)(=O)c1ccc(F)cc1` [Example 87, (2S,4R,5S)-4-fluoro-1-(4-fluorophenyl)sulfonyl-5-methyl-N-[[6-[5-(trifluoromethyl)pyrazin-2-yl]pyrimidin-4-yl]methyl]pyrrolidine-2-carboxamide] is 44-fold higher in IC50: 4.14 nM for the first, 184 nM for the second.

Compared with `C[C@H]1[C@H](F)C[C@@H](C(=O)NCc2cc(-c3cnc(C(F)(F)F)nc3)ncc2C(F)(F)F)N1S(=O)(=O)c1ccc(C#N)nc1` [Example 160, (2S,4R,5S)-1-[(6-cyano-3-pyridyl)sulfonyl]-4-fluoro-5-methyl-N-[[5-(trifluoromethyl)-2-[2-(trifluoromethyl)pyrimidin-5-yl]-4-pyridyl]methyl]pyrrolidine-2-carboxamide], `C[C@H]1[C@H](F)C[C@@H](C(=O)NCc2cc(-c3cnc(C4CC4)nc3)ncc2F)N1S(=O)(=O)c1ccc(F)cc1` [Example 141, (2S,4R,5S)-N-[[2-(2-cyclopropylpyrimidin-5-yl)-5-fluoro-4-pyridyl]methyl]-4-fluoro-1-(4-fluorophenyl)sulfonyl-5-methyl-pyrrolidine-2-carboxamide] is 2.8-fold higher in IC50: 7.27 nM for the first, 20.4 nM for the second. The first is the more potent here.

In the case of `C[C@H]1[C@H](F)C[C@@H](C(=O)NCc2cc(F)cc(-c3cnc(C(F)(F)F)cn3)c2)N1S(=O)(=O)c1ccc(F)cc1` [Example 45, (2S,4R,5S)-4-fluoro-N-(3-fluoro-5-(5-(trifluoromethyl)pyrazin-2-yl)benzyl)-1-(4-fluorophenylsulfonyl)-5-methylpyrrolidine-2-carboxamide], the IC50 is reported as 8.05 nM.
